The values that follow are results of earlier work, collected in US4835149A, “Solubilization of salts of pyridine-2-thiol-1-oxide” (BASF Corporation, priority 1986, dated 1989).

Test in series [1]: not given
This is another data set of the same source.

Take `[O-][n+]1ccccc1[S-].[O-][n+]1ccccc1[S-].[Zn+2]` [zinc salt]: the solubility in benzene (benzene) was 3-5 p.p.m. For the same compound, the solubility in chloroform (chloroform) is listed as 3400 p.p.m. For the same compound, the “solubility in dimethyl formamide” value (dimethyl formamide) is 8100 p.p.m. Moreover, for the setting “dimethyl sulfoxide”, the “solubility in dimethyl sulfoxide” value is listed as 5.13%. Besides, the solubility in ethanol (ethanol) is on record as 310 p.p.m. The “solubility in petroleum oils, and most common organic solvents” value (petroleum oils, and most common organic solvents, in words) is “substantially insoluble”. Moreover, the solubility in water (water) is given as 10-20 p.p.m. Moreover, the “solubility of the zinc salt in a composition according to U.S. Pat. No. 3,636,213” value in series [1] (composition having a pH of about 8) is reported as “at least 200 parts per million”. The “solubility in water at pH 8” value in series [1] (pH of 8) is recorded as 35 to 50 parts per million. Moreover, in series [1] (water, pH 7), the “solubility in water at pH 7” value is 10 to 20 parts per million.
